Test results reported in ChEMBL document CHEMBL5126581, “Chlorinated benzothiadiazines inhibit angiogenesis through suppression of VEGFR2 phosphorylation” (Bioorg Med Chem, 2022).

Legend:
MDA-MB-468 = assay: Cytotoxicity against human MDA-MB-468 cells assessed as inhibition of cell growth incubated for 72 hrs by MTS assay; assay type: functional, cell-based; settings: MDA-MB-468, 72 h
[1] = Cytotoxicity against HEK293 cells assessed as inhibition of cell growth at 50 uM incubated for 72 hrs by MTS assay relative to control; assay type: toxicity, cell-based; settings: human
[2] = Cytotoxicity against HEK293 cells assessed as inhibition of cell growth incubated for 72 hrs by MTS assay; assay type: toxicity, cell-based; settings: human

CNC(=O)c1cc(Oc2ccc(NC(=O)Nc3ccc(Cl)c(C(F)(F)F)c3)cc2)ccn1 [SORAFENIB]
IC50 (MDA-MB-468): 7.31 µM | inhibition at 72 h, 50 µM [1]: 99% | IC50 at 72 h [2]: 2.95 µM
